Patent US7767659B2, “Synthesis of naturally occurring ecteinascidins and related compounds” (Pharma Mar, S.A., priority 2002, dated 2010)
Where two headings read alike, the source gives them in different places.

Tests used:
HeLa-APL = experiment: Inhibition of cells growth by colorimetric assay (SRB); conditions: Homo sapiens, 48 h
Method in brief: (§1)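 Colorimetric SRB read (490 nm) on triplicate wells after 48 h at 37 °C, 5% CO2. Dose range 10 to 10^−8 μg/ml; 5×10^3 cells/well pre-attached 18 h.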

DU-145 = experiment: as above; conditions: Homo sapiens, DU-145, 48 h
Method in brief: as §1

K-562 = experiment: as above; conditions: Homo sapiens, K562, 48 h
Method in brief: as §1

IGROV-ET = experiment: as above; conditions: Homo sapiens, 48 h
Method in brief: as §1

SK-MEL-28 = experiment: as above; conditions: Homo sapiens, SK-MEL-28, 48 h
Method in brief: as §1

IGROV-1 = experiment: as above; conditions: Homo sapiens, IGROV-1, 48 h
Method in brief: as §1

SK-BR-3 = experiment: as above; conditions: Homo sapiens, SK-BR-3, 48 h
Method in brief: as §1

PANC-1 = experiment: as above; conditions: Homo sapiens, PANC-1, 48 h
Method in brief: as §1

LoVo-Dox = experiment: as above; conditions: Homo sapiens, 48 h
Method in brief: as §1

HeLa = experiment: as above; conditions: Homo sapiens, HeLa, 48 h
Method in brief: as §1

LNCaP = experiment: as above; conditions: Homo sapiens, LNCaP, 48 h
Method in brief: as §1

HT-29 = experiment: cells; conditions: Homo sapiens, HT-29, 48 h
Method in brief: as §1

A-549 = experiment: cells; conditions: Homo sapiens, A549, 48 h
Method in brief: as §1

LoVo = experiment: cells; conditions: Homo sapiens, LoVo, 48 h
Method in brief: as §1

Work on `C=CCN1[C@@H]2c3c(cc(C)c(OC)c3OC(=O)/C=C/c3ccccc3)C[C@H]1[C@H](C#N)N1C2[C@@H]2SCC(NC(=O)C(F)(F)F)C(=O)OC[C@H]1c1c3c(c(C)c(OC(C)=O)c12)OCO3` (some centres unmarked) [compound 29] yielded a GI50 (HeLa-APL; read-out: GI50 HELA-APL) of 4.29 µM, a CC50 (HeLa-APL; read-out: LC50 HELA-APL) of 11.4 µM and a GI50 (DU-145; read-out: GI50 DU145) of 2.3 µM. For the same compound, the CC50 (DU-145; read-out: LC50 DU145) was 11.4 µM, the IC (TGI) (DU-145; read-out: TGI DU145) was 7.93 µM and the GI50 (K-562; read-out: GI50 K562) was 0.629 µM. The CC50 (K-562; read-out: LC50 K562) was 11.4 µM, the IC (TGI) (K-562; read-out: TGI K562) was 3.9 µM and the GI50 (IGROV-ET; read-out: GI50 IGROV-ET) was 3.12 µM. It also gave a CC50 (IGROV-ET; read-out: LC50 IGROV-ET) of 11.4 µM, an IC (TGI) (IGROV-ET; read-out: TGI IGROV-ET) of 11.4 µM and a GI50 (SK-MEL-28; read-out: GI50 MEL-28) of 3.74 µM. For the same compound, the CC50 (SK-MEL-28; read-out: LC50 MEL-28) was 11.4 µM, the IC (TGI) (SK-MEL-28; read-out: TGI MEL-28) was 11.4 µM and the GI50 (IGROV-1; read-out: GI50 IGROV) was 2.19 µM. For the same compound, the CC50 (IGROV-1; read-out: LC50 IGROV) was 11.4 µM, the IC (TGI) (IGROV-1; read-out: TGI IGROV) was 11.4 µM and the GI50 (SK-BR-3; read-out: GI50 SK-BR3) was 0.889 µM. For the same compound, the CC50 (SK-BR-3; read-out: LC50 SK-BR3) was 11.4 µM, the IC (TGI) (SK-BR-3; read-out: TGI SK-BR3) was 7.98 µM and the GI50 (PANC-1; read-out: GI50 PANC-1) was 6.55 µM. The CC50 (PANC-1; read-out: LC50 PANC-1) was 11.4 µM, the IC (TGI) (PANC-1; read-out: TGI PANC-1) was 11.4 µM and the GI50 (LoVo-Dox; read-out: GI50 LOVO-DOX) was 4.09 µM. It also gave a CC50 (LoVo-Dox; read-out: LC50 LOVO-DOX) of 11.4 µM, an IC (TGI) (LoVo-Dox; read-out: TGI LOVO-DOX) of 11.4 µM and a GI50 (HeLa; read-out: GI50 HELA) of 6.3 µM. For the same compound, the CC50 (HeLa; read-out: LC50 HELA) was 11.4 µM, the IC (TGI) (HeLa; read-out: TGI HELA) was 11.4 µM and the GI50 (LNCaP; read-out: GI50 LNCAP) was 0.878 µM. The CC50 (LNCaP; read-out: LC50 LNCAP) was 11.4 µM, the IC (TGI) (LNCaP; read-out: TGI LNCAP) was 6.07 µM and the GI50 (HT-29; read-out: GI50 HT29) was 11.4 µM. The CC50 (HT-29; read-out: LC50 HT29) was 11.4 µM, the IC (TGI) (HT-29; read-out: TGI HT29) was 11.4 µM and the GI50 (A-549; read-out: GI50 A549) was 4.8 µM. It also gave a CC50 (A-549; read-out: LC50 A549) of 11.4 µM, an IC (TGI) (A-549; read-out: TGI A549) of 11.4 µM and a GI50 (LoVo; read-out: GI50 LOVO) of 2.85 µM. It also gave a CC50 (LoVo; read-out: LC50 LOVO) of 11.4 µM and an IC (TGI) (LoVo; read-out: TGI LOVO) of 11.4 µM.

With `CCCCCCCC(=O)Oc1c(C)c2c(c3c1[C@H]1SC[C@]4(NCCc5cc(O)c(OC)cc54)C(=O)OC[C@@H]3N3C1[C@@H]1N[C@@H](Cc4cc(C)c(OC)c(O)c41)[C@@H]3C#N)OCO2` (some centres unmarked) [compound 52] the GI50 (HeLa-APL; read-out: HELA-APL GI50) was 0.00705 µM, the CC50 (HeLa-APL; read-out: HELA-APL LC50) was 0.0923 µM and the IC (TGI) (HeLa-APL; read-out: HELA-APL TGI) was 0.0214 µM. The GI50 (DU-145; read-out: DU145 GI50) was 0.00492 µM, the CC50 (DU-145; read-out: DU145 LC50) was 5.14 µM and the IC (TGI) (DU-145; read-out: DU145 TGI) was 0.0193 µM. For the same compound, the GI50 (K-562; read-out: K562 GI50) was 0.00451 µM, the CC50 (K-562; read-out: K562 LC50) was 0.0806 µM and the IC (TGI) (K-562; read-out: K562 TGI) was 0.0213 µM. For the same compound, the GI50 (IGROV-ET; read-out: IGROV-ET GI50) was 0.0395 µM, the CC50 (IGROV-ET; read-out: IGROV-ET LC50) was 8.53 µM and the IC (TGI) (IGROV-ET; read-out: IGROV-ET TGI) was 0.119 µM. For the same compound, the GI50 (SK-MEL-28; read-out: MEL-28 GI50) was 0.00407 µM, the CC50 (SK-MEL-28; read-out: MEL-28 LC50) was 0.0527 µM and the IC (TGI) (SK-MEL-28; read-out: MEL-28 TGI) was 0.0155 µM. It also gave a GI50 (IGROV-1; read-out: IGROV GI50) of 0.00732 µM, a CC50 (IGROV-1; read-out: IGROV LC50) of 3.06 µM and an IC (TGI) (IGROV-1; read-out: IGROV TGI) of 0.0433 µM. For the same compound, the GI50 (SK-BR-3; read-out: SK-BR3 GI50) was 0.00618 µM, the CC50 (SK-BR-3; read-out: SK-BR3 LC50) was 11.9 µM and the IC (TGI) (SK-BR-3; read-out: SK-BR3 TGI) was 0.258 µM. It also gave a GI50 (PANC-1; read-out: PANC-1 GI50) of 0.0215 µM, a CC50 (PANC-1; read-out: PANC-1 LC50) of 0.61 µM and an IC (TGI) (PANC-1; read-out: PANC-1 TGI) of 0.0624 µM. It also gave a GI50 (LoVo-Dox; read-out: LOVO-DOX GI50) of 0.273 µM, a CC50 (LoVo-Dox; read-out: LOVO-DOX LC50) of 11.9 µM and an IC (TGI) (LoVo-Dox; read-out: LOVO-DOX TGI) of 11.9 µM. For the same compound, the GI50 (HeLa; read-out: HELA GI50) was 0.00598 µM, the CC50 (HeLa; read-out: HELA LC50) was 1.85 µM and the IC (TGI) (HeLa; read-out: HELA TGI) was 0.0225 µM. For the same compound, the GI50 (LNCaP; read-out: LNCAP GI50) was 0.00239 µM, the CC50 (LNCaP; read-out: LNCAP LC50) was 0.00906 µM and the IC (TGI) (LNCaP; read-out: LNCAP TGI) was 0.00466 µM. It also gave a GI50 (HT-29; read-out: HT29 GI50) of 0.00614 µM, a CC50 (HT-29; read-out: HT29 LC50) of 7.78 µM and an IC (TGI) (HT-29; read-out: HT29 TGI) of 1.25 µM. The GI50 (A-549; read-out: A549 GI50) was 0.00801 µM, the CC50 (A-549; read-out: A549 LC50) was 0.973 µM and the IC (TGI) (A-549; read-out: A549 TGI) was 0.0578 µM. For the same compound, the GI50 (LoVo; read-out: LOVO GI50) was 0.00917 µM, the CC50 (LoVo; read-out: LOVO LC50) was 0.0857 µM and the IC (TGI) (LoVo; read-out: LOVO TGI) was 0.0296 µM.
